Legend:
Type in all cases: in vivo
[1] = system: Blattella germanica; assay: Test Example 9: filter paper with sucrose bait, Blattella germanica; conditions: 500 ppm, 0.7 ml on filter paper, male imagoes, after 6 days
Description: The formulation of the compound 1-6 or 1-24 as obtained in Formulation Example 5 was diluted with water, so as to have a concentration of each compound of 500 ppm, to obtain a diluent.
A filter paper having a diameter of 5.5 cm was spread on the bottom of a polyethylene cup having the same diameter and 0.7 ml of the diluent was added dropwise onto the filter paper, and 30 mg of sucrose was uniformly placed as bait. Into the polyethylene cup, 2 male imagoes of Blattella germanica were released, and the cup was sealed with a lid. After 6 days, the life and death of Blattella germanica was examined, the number of dead insects was counted, and the death rate was calculated according to the following equation. Death rate (%)=(Number of dead insects/Number of tested insects)×100

[2] = system: Haemaphysalis longicornis; assay: Test Example 11: coated screw tube contact test, Haemaphysalis longicornis ticks; conditions: 2 mg compound coated on inner wall of screw tube, non-blood-sucking nymphal ticks, after 2 days
Description: 2 mg of each of the compounds 1-6, 1-10, 1-15, 1-24 or 1-37 to 1-38 was weighed in a screw tube (Maruemu No. 5; 27×55 mm), and 0.2 mL of acetone was added thereto and sealed with a cap to dissolve the compound. The screw tube was rotated and inverted to uniformly coat the liquid onto the whole inner wall of the tube. After removing the cap, the solution was air-dried for about 2 hours, then non-blood-sucking nymphal ticks, Haemaphysalis longicornis (5 ticks/group) were released, and the tube was sealed with the cap. After 2 days, the number of dead insects was counted, and the death rate was calculated according to the following equation: Death rate (%)=100×(Number of dead insects/Number of tested insects)

[3] = system: Nilaparvata lugens; assay: Test Example 4: soil drench of rice seedling, Nilaparvata lugens larvae released; conditions: 500 ppm, 5 ml drench at foot of rice seedling, third instar larvae released after 7 days, examined 6 days later
Description: The formulation of the compound 1-15 as obtained in Formulation Example 5 was diluted with water, so as to have a concentration of the compound of 500 ppm, to obtain a diluent.
On the other hand, a rice seedling (2 weeks after sowing, the second leaf stage) planted in a plastic cup was drenched at its foot with 5 ml of the diluent, and kept in a greenhouse at 25° C. for 7 days. 20 third instar larvae of Nilaparvata lugens were released, and further kept in the greenhouse for 6 days, then the number of surviving Nilaparvata lugens parasitic on the rice was examined, and the death rate was calculated according to the following equation: Death rate (%)=(1−Surviving insects/20)×100
wherein the non-treated section refers to a section where a liquid prepared by diluting the formulation not containing the present compound in Formulation Example 5 with the same amount of water as in the treated section was sprayed.

[4] = system: Aphis gossypii; assay: Test Example 2: soil drench of cucumber seedling, later inoculated with Aphis gossypii; conditions: 500 ppm, 5 ml drench at foot of cucumber seedling, inoculated after 7 days, examined 6 days later
Description: The formulations of the compound 1-24 as obtained in Formulation Example 5 was diluted with water, so as to have a concentration of each compound of 500 ppm, to obtain a diluent. On the other hand, a cucumber seedling (the second true leaf stage) planted in a plastic cup was drenched at its foot with 5 ml of the diluent, and kept in a greenhouse at 25° C. for 7 days. On the cucumber leaf surface was inoculated about 30 Aphis gossypii (whole stage), and further kept in the greenhouse for 6 days, then the number of the surviving Aphis gossypii parasitic on the leaves of the cucumber was examined, and the control value was calculated according to the following equation: Control value (%)=(1−(Cb×Tai)/(Cai×Tb))×100 wherein the symbols represent as follows: Cb: the number of the insects in a non-treated section on inoculating insects Cai: the number of the surviving parasitic insects in a non-treated section on observation Tb: the number of the insects in a treated section on inoculating insects Tai: the number of the surviving parasitic insects in a treated section on observation wherein the non-treated section refers to a section where a liquid prepared by diluting the formulation not containing the present compound in Formulation Example 5 with the same amount of water as in the treated section was sprayed.

| SMILES | Death rate [1] [%] | Death rate [2] [%] | Death rate [3] [%] | controlling value [4] [%] |
| --- | --- | --- | --- | --- |
| CCSc1cc(C(F)(F)F)ccc1-c1nc(-c2ccc(C(F)(F)F)cn2)no1 [Compound 1-6] | 100 | 100 |  |  |
| CCSc1cc(C(F)(F)F)ccc1-c1nnc(-c2ccc(C(F)(F)F)cn2)s1 [Compound 1-10] |  | 100 |  |  |
| CCS(=O)(=O)c1cccnc1-c1noc(-c2cc(C(F)(F)F)cc(C(F)(F)F)c2)n1 [Compound 1-15] |  | 100 | ≥ 90 |  |
| CCS(=O)(=O)c1ccccc1-c1noc(-c2cc(C(F)(F)F)cc(C(F)(F)F)c2)n1 [Compound 1-24] | 100 | 100 |  | ≥ 90 |
| CCS(=O)(=O)c1cccnc1-c1noc(-c2ccc(C(F)(F)F)s2)n1 [Compound 1-37] |  | 100 |  |  |
| CCS(=O)(=O)c1cccnc1-c1noc(-c2cc(Cl)cc(Cl)c2)n1 [Compound 1-38] |  | 100 |  |  |
